Test results: paper PMC6934184, “Selective DNA-PKcs inhibition extends the therapeutic index of localized radiotherapy and chemotherapy” (The Journal of Clinical Investigation, 2019)

Biological target: T1, MAPK1 (ERK2) (Homo sapiens, UniProt P28482)
T1 construct: purchased Thermo Fisher Scientific (Life Technologies) SelectScreen
Test: SelectScreen Z'LYTE
Assay type: biochemical
Summary of the method: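 Percent values come from Thermo SelectScreen profiling of NU5455, combining activity and binding assays. CSF1R was run in Z'LYTE format at Km app ATP, and CAMK1 in Adapta format with ATP listed at 10.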

T1 sequence (P28482 whole entry): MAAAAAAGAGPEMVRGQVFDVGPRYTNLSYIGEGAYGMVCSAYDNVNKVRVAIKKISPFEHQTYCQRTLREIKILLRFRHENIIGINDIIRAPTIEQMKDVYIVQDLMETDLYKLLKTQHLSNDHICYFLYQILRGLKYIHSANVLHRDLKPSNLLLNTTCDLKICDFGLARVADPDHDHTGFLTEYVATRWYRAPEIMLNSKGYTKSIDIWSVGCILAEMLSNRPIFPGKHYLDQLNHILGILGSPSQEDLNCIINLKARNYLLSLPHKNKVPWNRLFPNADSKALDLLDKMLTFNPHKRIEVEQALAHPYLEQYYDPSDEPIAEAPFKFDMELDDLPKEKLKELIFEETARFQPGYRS

For CN(C(=O)CN1CCOCC1)c1ccc2sc3c(-c4cccc5c(=O)cc(N6CC7CCC(C6)O7)oc45)cccc3c2c1 [NU5455], the inhibition at 1 µM was 10.1%.
